Results from publication PMC8748767 (Nature Communications, 2022).
Several values for one entry are separate records, joined by “and”; a condition that tells them apart may be missing. Equal entries are not always repeated. Where two headings read alike, the source gives them in different places.

What was measured:
[1] = molecular target: THS40p (S40 phosphorylated human TH) (Homo sapiens, UniProt P07101); test: biochemical
Experimental: TH was phosphorylated on S40 (control without kinase)[3], using the catalytic subunit of cAMP-dependent protein kinase (CatPKA, kind gift from S.O. Døskeland[64]). TH (4 mg/ml) was assayed in 50 mM Na-β-glycerophosphate pH 7.5, 1 mM DTT, 0.1 mM EGTA, 1x protease inhibitor cocktail (without EDTA, Pierce), 0.5 mM ATP, 5 mM MgCl2 and incubated with the catalytic subunit of CatPKA (200 nM, diluted from 20 µM in 60% glycerol, 0.5 mg/ml soya bean trypsin inhibitor) for 30 min at 25 °C. […] After phosphorylation, H89 (Sigma) (5 µM) was added and the samples were exchanged into 20 mM Hepes pH 7.0, 200 mM NaCl.
(§1) The activity of purified TH and truncated forms was assayed at 37 °C[7]. The purified enzymes were kept on ice and diluted with 0.5% (w/v) bovine serum albumin in 20 mM Na-Hepes pH 7, 200 mM NaCl and centrifuged at 10,000 × g for 5 min at 4 °C. […] TH was added to a final concentration of 1 µg/ml (17 nM subunit) and preincubated at 37 °C for 1 min. […] Protein was removed by precipitation at −20 °C for 90 min followed by centrifugation at 20,000 × g for 14 min at 4 °C. The amount of L-Dopa in the supernatant was determined using a 1200 series high performance liquid chromatography (HPLC) system (Agilent technologies). The chromatographic separation was obtained using an Agilent Zorbax 300-SCX column with 20 mM HAc pH 3.5, 2% (v/v) propanol as mobile phase at a flow rate of 3 ml/min. The fluorescence detector was set to λex = 280 nm and λem = 314 nm.
Statistical analyses were performed with Graphpad Prism software version 8.3.0. For SRCD, DSC and TH activity measurements, three enzyme samples from independent protein purifications were measured and the mean ± SD (standard deviation) was calculated. The homogeneity of variances was confirmed by Brown-Forsythe tests and multiple comparisons were made using one-way analysis of variance (ANOVA) followed by a post hoc HSD Tukey test. […]

[2] = molecular target: T1, THNΔ43 (Homo sapiens, UniProt P07101); test: Differential scanning calorimetry (DSC), thermal stability with DA, THNΔ43; type: binding
T1 construct: His-MBP (TEV site) (N, cleaved yes); made in house
T1 sequence (P07101 75-528 limits assumed, stated change not applied): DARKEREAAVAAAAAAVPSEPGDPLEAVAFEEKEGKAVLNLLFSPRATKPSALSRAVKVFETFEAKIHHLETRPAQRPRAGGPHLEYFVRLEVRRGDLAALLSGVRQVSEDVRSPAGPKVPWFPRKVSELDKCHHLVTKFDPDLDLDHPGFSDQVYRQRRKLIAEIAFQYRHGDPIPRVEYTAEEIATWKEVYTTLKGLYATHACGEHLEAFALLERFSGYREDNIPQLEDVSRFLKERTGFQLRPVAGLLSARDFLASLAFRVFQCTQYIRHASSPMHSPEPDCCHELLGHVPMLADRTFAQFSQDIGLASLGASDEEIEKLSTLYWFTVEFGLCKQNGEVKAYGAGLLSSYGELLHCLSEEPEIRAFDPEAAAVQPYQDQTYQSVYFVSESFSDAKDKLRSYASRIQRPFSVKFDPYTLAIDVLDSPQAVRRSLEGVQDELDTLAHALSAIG
Experimental: (§2) In all experiments, 9 μM TH in 20 mM Na-Hepes pH 7, 200 mM NaCl was used, with the same buffer as reference, heating from 25 to 75 °C at a scan rate of 200 °C/h.

[3] = molecular target: THNΔ43 (human TH lacking the N-terminal 43 residues) (Homo sapiens, UniProt P07101); test: Assay of TH activity and inhibition by DA, deletion mutant THNΔ43; type: biochemical
Chain of THNΔ43 (human TH lacking the N-terminal 43 residues) (P07101 75-528 limits assumed, stated change not applied): as above
Experimental: as §1
(§3) Statistical analyses were performed with Graphpad Prism software version 8.3.0. For SRCD, DSC and TH activity measurements, three enzyme samples from independent protein purifications were measured and the mean ± SD (standard deviation) was calculated. The homogeneity of variances was confirmed by Brown-Forsythe tests and multiple comparisons were made using one-way analysis of variance (ANOVA) followed by a post hoc HSD Tukey test. […] The individual curves were fitted to a four-parameter logistic curve by the [Inhibitor] vs. response—Variable slope equation (y = min + ((max − min)/(1 + IC50/X)^Hill Slope) in Graphpad and the mean IC50 ± SD reported.

[4] = molecular target: T2, full-length human TH (TH1) (Homo sapiens, UniProt P07101); test: biochemical; conditions: for IC50: mean ± SD, n = 3, 37 °C, 50 µM L-Tyr, 200 µM BH4
T2 sequence (P07101 1-497 isoform P07101-3): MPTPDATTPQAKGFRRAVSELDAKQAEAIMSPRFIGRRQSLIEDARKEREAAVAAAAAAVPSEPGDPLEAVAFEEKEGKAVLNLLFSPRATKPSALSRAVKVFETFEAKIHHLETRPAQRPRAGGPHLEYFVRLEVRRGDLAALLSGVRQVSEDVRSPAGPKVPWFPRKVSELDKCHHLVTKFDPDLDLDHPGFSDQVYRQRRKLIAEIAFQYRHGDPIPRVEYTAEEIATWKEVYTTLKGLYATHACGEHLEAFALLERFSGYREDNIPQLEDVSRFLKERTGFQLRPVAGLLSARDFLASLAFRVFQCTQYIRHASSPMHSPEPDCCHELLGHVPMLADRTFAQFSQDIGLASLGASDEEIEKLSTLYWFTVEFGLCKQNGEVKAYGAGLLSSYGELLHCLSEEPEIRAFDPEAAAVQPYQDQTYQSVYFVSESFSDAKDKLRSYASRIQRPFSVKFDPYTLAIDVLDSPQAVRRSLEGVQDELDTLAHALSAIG
Experimental: as §1, §3

[5] = molecular target: T3, THNΔ35 (Homo sapiens, UniProt P07101); test: Differential scanning calorimetry (DSC), thermal stability with DA, THNΔ35; type: binding
T3 construct: His-MBP (TEV site) (N, cleaved yes); made in house
T3 sequence (P07101 67-528 limits assumed, stated change not applied): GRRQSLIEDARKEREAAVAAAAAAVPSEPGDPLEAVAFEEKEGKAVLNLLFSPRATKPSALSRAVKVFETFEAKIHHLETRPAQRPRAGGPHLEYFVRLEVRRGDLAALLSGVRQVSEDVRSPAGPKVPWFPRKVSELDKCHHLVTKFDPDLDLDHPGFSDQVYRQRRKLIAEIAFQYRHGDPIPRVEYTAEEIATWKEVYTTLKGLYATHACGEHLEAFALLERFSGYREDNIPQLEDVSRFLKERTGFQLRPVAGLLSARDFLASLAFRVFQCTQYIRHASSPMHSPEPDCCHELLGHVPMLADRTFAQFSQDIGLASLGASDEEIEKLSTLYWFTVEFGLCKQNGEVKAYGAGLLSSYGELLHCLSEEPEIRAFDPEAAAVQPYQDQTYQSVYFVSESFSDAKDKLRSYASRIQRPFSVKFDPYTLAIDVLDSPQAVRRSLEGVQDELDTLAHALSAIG
Experimental: as §2

[6] = molecular target: THNΔ35 (human TH with the first 35 residues deleted) (Homo sapiens, UniProt P07101); test: Assay of TH activity and inhibition by DA, deletion mutant THNΔ35; type: biochemical
Chain of THNΔ35 (human TH with the first 35 residues deleted) (P07101 67-528 limits assumed, stated change not applied): as above
Experimental: as §1, §3

[7] = molecular target: THNΔ70 (human TH with the entire N-terminal removed) (Homo sapiens, UniProt P07101); test: Assay of TH activity and inhibition by DA, deletion mutant THNΔ70; type: biochemical
Chain of THNΔ70 (human TH with the entire N-terminal removed) (P07101 102-528 limits assumed, stated change not applied): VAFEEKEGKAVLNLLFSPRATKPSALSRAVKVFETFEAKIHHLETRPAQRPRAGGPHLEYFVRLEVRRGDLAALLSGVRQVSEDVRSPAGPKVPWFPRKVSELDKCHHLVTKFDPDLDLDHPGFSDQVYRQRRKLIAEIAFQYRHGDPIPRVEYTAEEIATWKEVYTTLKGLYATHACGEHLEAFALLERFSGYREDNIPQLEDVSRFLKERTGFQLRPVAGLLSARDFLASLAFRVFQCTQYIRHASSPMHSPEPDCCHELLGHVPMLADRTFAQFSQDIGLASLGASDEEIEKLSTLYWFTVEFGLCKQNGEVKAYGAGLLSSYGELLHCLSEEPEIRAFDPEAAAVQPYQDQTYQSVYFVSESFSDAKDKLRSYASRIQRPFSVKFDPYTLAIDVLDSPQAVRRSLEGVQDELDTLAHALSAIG
Experimental: as §1, §3

[8] = molecular target: TH, THNΔ35, THNΔ43, THNΔ70, THS40p (Homo sapiens, UniProt P07101); conditions: far-UV SRCD, two-fold molar ratio of DA
Chain of TH, THNΔ35, THNΔ43, THNΔ70, THS40p (P07101 1-497 isoform P07101-3): as the sequence (P07101 1-497 isoform P07101-3) above
Experimental: SRCD spectra were collected as from 280 to 170 nm (3 scans averaged) at 25 °C on the AU-UV beamline at ASTRID2, part of the Institute for Storage Rings (ISA) facility at the University of Aarhus, Denmark. […] The path length of the cell was confirmed using an interferometry method and found to be 100.1 µm. The protein concentration was measured using Abs280nm prior to the measurements and more accurately by A205nm from the absorption spectra measured simultaneously with the CD spectra, using the respective theoretical extinction coefficients[65]. The A205nm measurements were used in the conversion of raw CD units to ∆ε(M^−1cm^−1) values. Secondary structure content was determined in the 250–180 nm range using the BeStSel algorithm[66].

[9] = molecular target: T2, full-length human TH (TH1); test: Differential scanning calorimetry (DSC), thermal stability with DA, TH; type: binding
Experimental: as §2

[10] = molecular target: T4, THNΔ70 (Homo sapiens, UniProt P07101); test: Differential scanning calorimetry (DSC), thermal stability with DA, THNΔ70; type: binding
T4 construct: His-MBP (TEV site) (N, cleaved yes); made in house
T4 sequence (P07101 102-528 limits assumed, stated change not applied): as the sequence (P07101 102-528 limits assumed, stated change not applied) above
Experimental: as §2

[11] = individual samples (source data Sup Table 9)

Chain of THS40p (S40 phosphorylated human TH) (P07101 1-497 isoform P07101-3): as the sequence (P07101 1-497 isoform P07101-3) above

SMILES: NCCc1ccc(O)c(O)c1 [DA, dopamine]
- remaining activity at 1000 µM ([1]; 5 min, read-out: Relative TH activity, THS40p, 1000.00 µM dopamine, relative to mean activity with 0 µM DA, replicates): 0%
- IC50 ([1]; Dopamine IC50, THS40p, source data Fig 5f, SEM in a column of its own): 12.4 µM
- IC50 ([1]; THS40p, mean ± SD, n = 3, 37 °C, 50 µM L-Tyr, 200 µM BH4, read-out: IC50 for DA inhibition of TH activity): 12.4 ± 2.3 µM
- Tonset with DA ([2]; THNΔ43 + two-fold molar ratio of DA, mean ± SD, without DA 43.3 ± 0.9): 43.5 ± 0.5 °C
- Tmax with DA ([2]; THNΔ43 + two-fold molar ratio of DA, mean ± SD, without DA 54.3 ± 1.7): 56.5 ± 0.4 °C
- T max, THNΔ43+DA [2, 11]: 56.94 °C and 56.71 °C and 56.44 °C and 56.11 °C
- T onset, THNΔ43+DA [2, 11]: 43.98 °C and 42.91 °C and 43.13 °C and 43.87 °C and 43.53 °C
- IC50 ([3]; THNΔ43, mean ± SD, n = 3, 37 °C, 50 µM L-Tyr, 200 µM BH4): 18.1 ± 1 µM
- remaining activity at 0.2 µM ([3]; read-out: Relative TH activity, THNΔ43, 0.20 µM dopamine, relative to mean activity with 0 µM DA, replicates): 105%
- remaining activity at 6.25 µM ([3]; read-out: Relative TH activity, THNΔ43, 6.25 µM dopamine, relative to mean activity with 0 µM DA, replicates): 73.9%
- remaining activity at 12.49 µM ([3]; read-out: Relative TH activity, THNΔ43, […] µM dopamine, relative to mean activity with 0 µM DA, replicates): 59.8%
- remaining activity at 24.98 µM ([3]; read-out: Relative TH activity, THNΔ43, 24.98 µM dopamine, relative to mean activity with 0 µM DA, replicates): 43.9%
- remaining activity at 49.97 µM ([3]; read-out: Relative TH activity, THNΔ43, 49.97 µM dopamine, relative to mean activity with 0 µM DA, replicates): 28.7%
- remaining activity at 199.88 µM ([3]; read-out: Relative TH activity, THNΔ43, 199.88 µM dopamine, relative to mean activity with 0 µM DA, replicates): 11.8%
- IC50 ([4]; IC50 for DA inhibition of TH activity): 0.49 ± 0.04 µM
- IC50 ([4]; read-out: IC50 for DA inhibition of TH activity): ~0.5 µM
- remaining activity at 0.08 µM ([4]; read-out: Relative TH activity, TH, 0.08 µM dopamine, relative to mean activity with 0 µM DA, replicates): 102%
- remaining activity at 0.63 µM ([4]; read-out: Relative TH activity, TH, 0.63 µM dopamine, relative to mean activity with 0 µM DA, replicates): 48.2%
- remaining activity at 5 µM ([4]; read-out: Relative TH activity, TH, 5.00 µM dopamine, relative to mean activity with 0 µM DA, replicates): 10%
- remaining activity at 10 µM ([4]; read-out: Relative TH activity, TH, 10.00 µM dopamine, relative to mean activity with 0 µM DA, replicates): 6.24%
- Tonset with DA ([5]; THNΔ35 + two-fold molar ratio of DA, mean ± SD, without DA 37.5 ± 1.2): 39.6 ± 0.3 °C
- Tmax with DA ([5]; THNΔ35 + two-fold molar ratio of DA, mean ± SD, without DA 51.7 ± 0.7): 54.9 ± 1.0 °C
- T max, THNΔ35+DA [5, 11]: 56.43 °C and 54.75 °C and 54.43 °C and 54.1 °C
- T onset, THNΔ35+DA [5, 11]: 39.27 °C and 39.93 °C and 39.71 °C and 39.61 °C
- IC50 ([6]; THNΔ35, mean ± SD, n = 3, 37 °C, 50 µM L-Tyr, 200 µM BH4): 0.22 ± 0.02 µM
- remaining activity at 0.05 µM ([6]; read-out: Relative TH activity, THNΔ35, 0.05 µM dopamine, relative to mean activity with 0 µM DA, replicates): 89.3%
- remaining activity at 0.1 µM ([6]; read-out: Relative TH activity, THNΔ35, 0.10 µM dopamine, relative to mean activity with 0 µM DA, replicates): 73.8%
- remaining activity at 0.2 µM ([6]; read-out: Relative TH activity, THNΔ35, 0.20 µM dopamine, relative to mean activity with 0 µM DA, replicates): 56.1%
- remaining activity at 0.78 µM ([6]; read-out: Relative TH activity, THNΔ35, […] µM dopamine, relative to mean activity with 0 µM DA, replicates): 29.7%
- remaining activity at 6.25 µM ([6]; read-out: Relative TH activity, THNΔ35, 6.25 µM dopamine, relative to mean activity with 0 µM DA, replicates): 8.14%
- remaining activity at 25 µM ([6]; read-out: Relative TH activity, THNΔ35, […] dopamine, relative to mean activity with 0 µM DA, replicates): 3.12%
- IC50 ([7]; THNΔ70, mean ± SD, n = 3, 37 °C, 50 µM L-Tyr, 200 µM BH4): 19.4 ± 5.6 µM
- remaining activity at 0.2 µM ([7]; read-out: Relative TH activity, THNΔ70, 0.20 µM dopamine, relative to mean activity with 0 µM DA, replicates): 113%
- remaining activity at 12.58 µM ([7]; read-out: Relative TH activity, THNΔ70, […] µM dopamine, relative to mean activity with 0 µM DA, replicates): 74.6%
- remaining activity at 50.31 µM ([7]; read-out: Relative TH activity, THNΔ70, 50.31 µM dopamine, relative to mean activity with 0 µM DA, replicates): 35.7%
- remaining activity at 201.25 µM ([7]; read-out: Relative TH activity, THNΔ70, 201.25 µM dopamine, relative to mean activity with 0 µM DA, replicates): 13.3%
- Effect of incubation with DA on secondary structure (helix content) of TH [8]: no increase in helix content
- Tonset with DA ([9]; TH + two-fold molar ratio of DA, mean ± SD, without DA 43.3 ± 0.2): 45.2 ± 0.6 °C
- Tmax with DA ([9]; TH + two-fold molar ratio of DA, mean ± SD, without DA 54.9 ± 0.4): 58.6 ± 0.6 °C
- T max, TH+DA [9, 11]: 59.32 °C and 58.94 °C and 58.11 °C and 58.01 °C
- T onset, TH+DA [9, 11]: 45.07 °C and 45.48 °C and 44.42 °C and 45.76 °C
- Tonset with DA ([10]; THNΔ70 + two-fold molar ratio of DA, mean ± SD, without DA 45.0 ± 0.5): 45.6 ± 0.6 °C
- Tmax with DA ([10]; THNΔ70 + two-fold molar ratio of DA, mean ± SD, without DA 56.0 ± 0.1): 56.4 ± 0.2 °C
- T max, THNΔ70+DA [10, 11]: 56.38 °C and 56.21 °C and 56.6 °C
- T onset, THNΔ70+DA [10, 11]: 45.36 °C and 45.19 °C and 46.36 °C
